Tests used:
[1] = Caco-2 permeability assay; settings: human
Experimental: Caco-2 permeability assay was performed in triplicate. A 10 μM sample was dissolved in 1% (v/v) DMSO/HBSS solution, and 100 μM verapamil in Hank's Balanced Salt Solution (HBSS) buffer was used as a P-glycoprotein inhibitor. Inserts with Caco-2 cells were pre-incubated with verapamil for 30 min at 37° C., and then incubated for 2 hours at 37° C. without shaking. Efflux ratio was calculated as A to B permeability/B to A permeability. Aliquots (20 μL) were collected at each time point (0.5, 1, 1.5, and 2 hours). Experiments were performed in duplicate.

HBV = type: cell-based, Hepatitis B virus; settings: HepG2-NTCP cells
Experimental: HepG2 cells are representative cells that have immortalized human liver cells, and HepG2-NTCP cells refer to cells that overexpress sodium-taurocholate cotransporting polypeptide (NTCP). HepG2-NTCP cells are representative cells used to confirm the effect of inhibiting HBV host invasion.
HepG2-NTCP cells were grown in DMEM medium containing 10% FBS, penicillin (100 U), and streptomycin (0.1 mg/mL) at 37° C. with […]. […] The HepG2-NTCP cells were incubated with cyclic peptides in 12-well plates for 2 hours. Afterwards, the cells were infected by treating HBV particles (2×10^6 virus/mL) and cyclic peptide together and cultured for 3 hours. After removing the medium containing the virus, the cells were cultured for 16 hours. After the cells were treated with cyclic peptide, intracellular HBV DNA was extracted, purified, and quantified using a gene amplification test. To isolate HBV DNA from host cells, cells were lysed with cell lysis buffer (50 mM Tris-HCl, pH 7.5, 1 mM EDTA, 1% NP40) for 10 minutes on ice. […]. Micrococcal nuclease was inactivated by adding EGTA to a final concentration of […]. Afterwards, intracellular DNA of HBV was extracted using the G-SPIN™ set. […]
In vitro HBV entry inhibition assay based on quantification of intracellular DNA of HBV was performed. […]
The IC50 values are expressed as mean±SD. […]

Compound	Papp A→B at 2 h, 10 μM ([1]; Caco-2) [×10⁻⁶ cm/s]	Papp B→A at 2 h, 10 μM ([1]; Caco-2) [×10⁻⁶ cm/s]	efflux ratio at 2 h, 10 μM ([1]; Caco-2)	recovery at 2 h, 10 μM ([1]; Caco-2, A to B % recovery, A to B) [%]	recovery at 2 h, 10 μM ([1]; Caco-2, A to B with verapamil % recovery, A to B, 100 μM verapamil) [%]	recovery at 2 h, 10 μM ([1]; Caco-2, B to A % recovery, B to A) [%]	HBV inhibition (%) (HBV; 1 μM, intracellular HBV DNA, n=3)	IC50 (HBV; mean±SD, read-out: In vitro HBV entry inhibition (IC50)) [µM]
CN(C)C(=O)C(CCN1CCC(O)(c2ccc(Cl)cc2)CC1)(c1ccccc1)c1ccccc1 [loperamide]	2.9 ± 2	27.5 ± 1.6	10	88 ± 6	78 ± 1	85 ± 1	–	–
Cyclosporine A [CsA]	–	–	–	–	–	–	83 ± 8	0.4 ± 0.03

— US20260258087A1, “PHARMACEUTICAL COMPOSITION FOR PREVENTING OR TREATING HEPATITIS B” (GWANGJU INSTITUTE OF SCIENCE AND TECHNOLOGY, priority 2022, published 2026)
